Source: patent US8039505B2, “Compounds for modulating T-cells” (University of Utah Research Foundation, priority 2007, dated 2011)
Read-outs that look alike come from different tables or passages of the source.

Experiment: Pharmacokinetics in male Swiss Albino mouse, intravenous and oral (LC-MS/MS of plasma)
Assay type: in vivo
Experimental: The pharmacokinetics of 1H-indole-3-carbaldehyde quinolin-8-ylhydrazone (Compound C3) was evaluated following intravenous (3 mg/kg) and oral (15 mg/kg) solution administration of 1H-indole-3-carbaldehyde quinolin-8-ylhydrazone in male Swiss Albino mouse. The effect of the Test Item, 1H-indole-3-carbaldehyde quinolin-8-ylhydrazone on complete blood count (CBC) was also evaluated. Pharmacokinetic phase consisted of two groups, Group 1 and Group 2. Animals in Group 1 were given intravenous bolus dose in a vehicle containing 5% N,N-dimethylacetamide, 5% CREMOPHOR™ EL and 90% Dextrose solution (5% w/v) and those in Group 2 were given oral solution dose in a vehicle, the composition of which was same as that of intravenous formulation. In addition, the effect of Test Item on complete blood count was evaluated following intravenous and oral dose administration along with its vehicle controls. A total of four groups were used each with 6 mice.
From the pharmacokinetic group, predose samples were collected from 3 animals in each group. Following dose administration terminal blood samples were collected at each of the following time points (in triplicate): 0.083 (only for intravenous), 0.25, 0.5, 1, 2, 4, 8, 12 and 24 hours. At each time point, approximately 500 μL of whole blood was withdrawn from the retro orbital sinus and collected in labeled tubes containing dipotassium EDTA as anticoagulant (20 μL of 200 mM K2 EDTA solution per mL of blood). Plasma was separated by centrifuging the whole blood at about 2500 g for 10 minutes at 4° C. within 1 h of sample collection. Separated plasma was stored below minus 50° C. until bioanalysis. A sensitive LC-MS/MS method was used for the quantitation of 1H-indole-3-carbaldehyde quinolin-8-ylhydrazone. The lower limit of quantitation was 1.04 ng/mL. For CBC evaluation, approximately 500 μL of blood was collected in labeled tubes containing dipotassium EDTA as anticoagulant (10 […]/mL of blood) after 48 h of dose administration from all animals.
A total of 57 mice were divided into an intravenous dose group of 30 mice (Group 1) and oral dose group of 27 mice (Group 2). Animals in Group 1 received intravenous bolus dose via tail vein at 3 mg/kg and animals in Group 2 received oral solution dose via gavage at 15 mg/kg. Three animals were administered the dose for each time point (intravenous: 10 time points; Oral: 9 time points). Terminal blood samples were collected from each mouse under light ether anesthesia and plasma was separated.
Animals in Group 1 were administered an intravenous bolus dose via the tail vein (dosing volume: 6 mL/kg). Animals in Group 2 received oral dose by gavage with an oral dosing needle (dosing volume: 10 mL/kg). Animals in the CBC evaluation group were treated same as above except the animals in control group received vehicle instead of formulation.
Pharmacokinetic group: Predose samples were collected from 3 animals in each group. Following dose administration terminal blood samples were collected at each of the following time points (in triplicate): 0.083 (only for intravenous), 0.25, 0.5, 1, 2, 4, 8, 12 and 24 hours. For each time point, approximately 500 μL of whole blood was withdrawn from the retro orbital sinus and collected in labeled tubes containing dipotassium EDTA as anticoagulant (20 μL of 200 mM K2 EDTA solution per mL of blood). Plasma was separated by centrifuging the whole blood at about 2500 g for 10 minutes at 4° C. within 1 h of sample collection. Separated plasma was stored below minus 50° C. until bioanalysis.
An LC-MS/MS method was developed and employed for the quantitation of 1H-indole-3-carbaldehyde quinolin-8-ylhydrazone in the mouse plasma samples. The samples were prepared for analysis following liquid-liquid extraction using amodiaquin as internal standard. The lower limit of quantitation was 1.04 ng/mL.
Pharmacokinetic parameters were calculated using non-compartmental analysis tool of WINNONLIN™ Enterprise software (Version 5.1.1). […]

[1] = male, Swiss Albino, mouse, plasma, iv, 3 mg/kg, mouse, intravenous bolus 3 mg/kg, N = 3, read-out: Mean plasma concentration
[2] = male, Swiss Albino, mouse, plasma, iv, 3 mg/kg, mouse, intravenous bolus 3 mg/kg, individual mice, LLOQ 1.04 ng/mL, read-out: Individual plasma concentration
[3] = male, Swiss Albino, mouse, plasma, oral, 15 mg/kg, mouse, oral solution 15 mg/kg, N = 3, read-out: Mean plasma concentration
[4] = male, Swiss Albino, plasma, mouse, IV 3 mg/kg
[5] = male, Swiss Albino, plasma, mouse, oral solution 15 mg/kg

Q: With `C(=NNc1cccc2cccnc12)c1c[nH]c2ccccc12` [Compound C3, 1H-indole-3-carbaldehyde quinolin-8-ylhydrazone] as the molecule, how does the concentration at 0.5 h (male, Swiss Albino, mouse, plasma, iv, 3 mg/kg, intravenous bolus 3 mg/kg, N = 3) read?
A: 292 ng/mL

Q: And the concentration at 0.083 h (male, Swiss Albino, mouse, plasma, iv, 3 mg/kg, mouse plasma, IV 3 mg/kg, 0.083 h sample, read-out: Initial conc. (repeat analysis))?
A: 47.3 ng/mL

Q: And the concentration at 0.083 h (male, Swiss Albino, mouse, plasma, iv, 3 mg/kg, mouse plasma, IV 3 mg/kg, 0.083 h sample, read-out: Repeated conc. (repeat analysis))?
A: 75.6 ng/mL

Q: What about the concentration at 0.25 h (male, Swiss Albino, mouse, plasma, iv, 3 mg/kg, mouse plasma, IV 3 mg/kg, 0.25 h samples, read-out: Initial conc. (repeat analysis)) of the same molecule?
A: 130 ng/mL

Q: What about the concentration at 0.25 h (male, Swiss Albino, mouse, plasma, iv, 3 mg/kg, mouse plasma, IV 3 mg/kg, 0.25 h samples, read-out: Repeated conc. (repeat analysis)) of the same molecule?
A: 200 ng/mL

Q: What about the half-life (male, Swiss Albino, mouse, plasma, iv, 3 mg/kg, mouse, IV 3 mg/kg, read-out: T1/2 (converted)) of the same molecule?
A: 1.67 h

Q: What about the half-life (male, Swiss Albino, mouse, plasma, iv, 3 mg/kg, mouse, following intravenous administration 3 mg/kg, read-out: Half-life (converted)) of the same molecule?
A: ~1.7 h

Q: What about the concentration at 0.083 h (male, Swiss Albino, mouse, plasma, iv, 3 mg/kg, mouse, intravenous bolus 3 mg/kg, 0.083 h, N = 2, read-out: Mean plasma concentration) of the same molecule?
A: 1690 ng/mL

Q: And the concentration at 0.25 h (male, Swiss Albino, mouse, plasma, iv, 3 mg/kg, mouse, intravenous bolus 3 mg/kg, 0.25 h, N = 3, read-out: Mean plasma concentration)?
A: 244 ng/mL

Q: And the concentration at 0.25 h (male, Swiss Albino, mouse, plasma, iv, 3 mg/kg, mouse, intravenous bolus 3 mg/kg, 0.25 h, individual mice, LLOQ 1.04 ng/mL, read-out: Individual plasma concentration)?
A: 200 ng/mL

Q: And the concentration at 1 h [1]?
A: 147 ng/mL

Q: And the concentration at 1 h [2]?
A: 116 ng/mL

Q: What about the concentration at 2 h [1] of the same molecule?
A: 65.2 ng/mL

Q: What about the concentration at 2 h [2] of the same molecule?
A: 71.9 ng/mL

Q: What about the concentration at 4 h [1] of the same molecule?
A: 35.9 ng/mL

Q: What about the concentration at 4 h [2] of the same molecule?
A: 42.4 ng/mL

Q: What about the concentration at 8 h [1] of the same molecule?
A: 8.95 ng/mL

Q: And the concentration at 8 h [2]?
A: 10.1 ng/mL

Q: What about the concentration at 12 h [1] of the same molecule?
A: 1.29 ng/mL

Q: What about the concentration at 12 h (male, Swiss Albino, mouse, plasma, iv, 3 mg/kg, mouse, intravenous bolus 3 mg/kg, individual mice, BLQ = below LLOQ 1.04 ng/mL, read-out: Individual plasma concentration) of the same molecule?
A: 1.68 ng/mL

Q: What about the bioavailability (male, Swiss Albino, mouse, plasma, oral, 15 mg/kg, mouse, oral 15 mg/kg vs IV 3 mg/kg, read-out: F, absolute oral solution bioavailability) of the same molecule?
A: ~26%

Q: And the concentration at 0.25 h (male, Swiss Albino, mouse, plasma, oral, 15 mg/kg, mouse, oral solution 15 mg/kg, 0.25 h, N = 3, read-out: Mean plasma concentration)?
A: 140 ng/mL

Q: And the concentration at 1 h [3]?
A: 199 ng/mL

Q: What about the concentration at 2 h [3] of the same molecule?
A: 96.5 ng/mL

Q: And the concentration at 4 h [3]?
A: 146 ng/mL

Q: And the concentration at 8 h [3]?
A: 75.3 ng/mL

Q: What about the concentration at 8 h (male, Swiss Albino, mouse, plasma, oral, 15 mg/kg, mouse, oral solution 15 mg/kg, individual mice, LLOQ 1.04 ng/mL, read-out: Individual plasma concentration) of the same molecule?
A: 76.7 ng/mL

Q: And the concentration at 12 h [3]?
A: 8.91 ng/mL

Q: What about the concentration at 0.5 h (male, Swiss Albino, mouse, plasma, oral, 15 mg/kg, oral solution 15 mg/kg, N = 3) of the same molecule?
A: 148 ng/mL

Q: And the half-life (male, Swiss Albino, mouse, plasma, po, 15 mg/kg, mouse, oral solution 15 mg/kg, read-out: T1/2 (converted))?
A: 1.98 h

Q: What about the AUC [4] of the same molecule?
A: 913 ng·h/mL

Q: What about the AUC(0-t) [4] of the same molecule?
A: 909 ng·h/mL

Q: And the Cmax [4]?
A: 1690 ng/mL

Q: And the clearance [4]?
A: 54.8 mL/min/kg

Q: What about the Tmax (male, Swiss Albino, plasma, mouse, IV 3 mg/kg, first sampling point) of the same molecule?
A: 0.083 h

Q: And the Vd (male, Swiss Albino, plasma, mouse, IV 3 mg/kg, read-out: Vds. (volume of distribution))?
A: 4.28 L/kg

Q: What about the AUC [5] of the same molecule?
A: 1170 ng·h/mL

Q: And the AUC(0-t) [5]?
A: 1140 ng·h/mL

Q: What about the Cmax [5] of the same molecule?
A: 199 ng/mL

Q: What about the Tmax [5] of the same molecule?
A: 1 h

Q: What about the “Accepted conc. (repeat analysis)” value (mouse plasma, IV 3 mg/kg, 0.083 h sample) of the same molecule?
A: 75.62 c ng/mL
